Data from patent US6737383B1, “Herbicidal oxadiazolidines” (priority 1999, dated 2004).

Key:
[1] = tested on: rape; test: Test B pre/postemergence rape; assay type: in vivo, Brassica napus
Summary of the method: (§1)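 Test chemicals in a non-phytotoxic solvent mixture with surfactant were sprayed preemergence onto planted seeds and postemergence onto plants 2 to 18 cm tall (1- to 4-leaf stage). After twelve to sixteen days in a greenhouse, injury was visually rated against untreated controls from 0 (no effect) to 10 (complete control).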

[2] = tested on: blackgrass; test: Test B pre/postemergence blackgrass; assay type: in vivo, Alopecurus myosuroides
Summary of the method: as §1

[3] = tested on: giant foxtail; test: Test B pre/postemergence giant foxtail; assay type: in vivo, Setaria faberii
Summary of the method: as §1

[4] = tested on: soybean; test: Test B pre/postemergence soybean; assay type: in vivo, Glycine max
Summary of the method: as §1

[5] = tested on: crabgrass; test: Test B pre/postemergence crabgrass; assay type: in vivo, Digitaria sanguinalis
Summary of the method: as §1

[6] = tested on: bamyardgrass; test: Test B flood test barnyardgrass; assay type: in vivo, Echinochloa crus-galli
Summary of the method: (§2)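 Each value is a visual injury score relative to controls, with 10 meaning complete control and 0 no effect. Evaluation took place twelve to sixteen days after the 2-leaf-stage plants were treated and kept in the greenhouse.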

[7] = tested on: cocklebur; test: Test B pre/postemergence cocklebur; assay type: in vivo, Xanthium strumarium
Summary of the method: as §1

[8] = tested on: purple nutsedge; test: Test B pre/postemergence purple nutsedge; assay type: in vivo, Cyperus rotundus
Summary of the method: as §1

[9] = tested on: corn; test: Test B pre/postemergence corn; assay type: in vivo, Zea mays
Summary of the method: as §1

[10] = tested on: surinam grass; test: Test B pre/postemergence surinam grass; assay type: in vivo, Brachiaria decumbens
Summary of the method: as §1

[11] = tested on: smallflower flatsedge; test: Test B flood test smallflower flatsedge; assay type: in vivo, Cyperus difformis
Summary of the method: as §2

[12] = tested on: pigweed; test: Test B pre/postemergence pigweed; assay type: in vivo, Amaranthus retroflexus
Summary of the method: as §1

[13] = tested on: duck salad; test: Test B flood test duck salad; assay type: in vivo, Heteranthera limosa
Summary of the method: as §2

[14] = tested on: rice; test: Test B flood test rice; assay type: in vivo, Oryza sativa
Summary of the method: as §2

[15] = tested on: sugar beet; test: Test B pre/postemergence sugar beet; assay type: in vivo, Beta vulgaris
Summary of the method: as §1

[16] = tested on: wheat; test: Test B pre/postemergence wheat; assay type: in vivo, Triticum aestivum
Summary of the method: as §1

[17] = Postemergence, Rate 250 g/ha, scale 0 to 10
[18] = Postemergence, Rate 500 g/ha, scale of 0 to 10 where 0 is no effect and 10 is complete control
[19] = Preemergence, Rate 62 g/ha, scale 0 to 10 (0 no effect, 10 complete control)
[20] = Preemergence, Rate 125 g/ha, scale of 0 to 10 where 0 is no effect and 10 is complete control
[21] = Preemergence, Rate 250 g/ha, scale 0 to 10, 0 is no effect, 10 is complete control
[22] = Preemergence, Rate 500 g/ha, scale 0 to 10, 0 is no effect, 10 is complete control
[23] = Rate 125 g/ha, Postemergence, scale 0 to 10, 0 is no effect, 10 is complete control
[24] = Preemergence, Rate 250 g/ha, scale of 0 to 10 where 0 is no effect and 10 is complete control
[25] = Rate 62 g/ha, Postemergence, scale of 0 to 10 where 0 is no effect and 10 is complete control
[26] = Postemergence block (flood test species), Rate 250 g/ha, scale 0 to 10
[27] = Postemergence section (flood test species), Rate 500 g/ha, scale of 0 to 10 where 0 is no effect and 10 is complete control
[28] = Rate 62 g/ha, Postemergence (flood test species), scale of 0 to 10 where 0 is no effect and 10 is complete control
[29] = Rate 125 g/ha, Postemergence section (flood test species), scale 0 to 10, 0 is no effect, 10 is complete control

CC(C)N(C(=O)n1oc(=O)n(C[Si](C)(C)c2ccccc2)c1=O)c1ccc(Cl)cc1 [Compound 424]
2: Soybean plant response rating [4, 18]
1: Soybean plant response rating [4, 17]
0: Rape plant response rating [1, 17] | Rape plant response rating [1, 18] | Plant response rating, Rape [1, 19] | Plant response rating, Rape [1, 20] | Rape plant response rating [1, 21] | Rape plant response rating [1, 22] | Rape plant response rating [1, 23] | Blackgrass plant response rating [2, 17] | Blackgrass plant response rating [2, 18] | Plant response rating, Blackgrass [2, 19] | Plant response rating, Blackgrass [2, 20] | Blackgrass plant response rating [2, 24] | Blackgrass plant response rating [2, 22] | Blackgrass plant response rating [2, 25] | Blackgrass plant response rating [2, 23] | Giant foxtail plant response rating [3, 17] | Giant foxtail plant response rating [3, 18] | Plant response rating, Giant foxtail [3, 19] | Plant response rating, Giant foxtail [3, 20] | Giant foxtail plant response rating [3, 21] | Giant foxtail plant response rating [3, 22] | Giant foxtail plant response rating [3, 25] | Giant foxtail plant response rating [3, 23] | Plant response rating, Soybean [4, 19] | Plant response rating, Soybean [4, 20] | Soybean plant response rating [4, 21] | Soybean plant response rating [4, 22] | Soybean plant response rating [4, 23] | Crabgrass plant response rating [5, 17] | Crabgrass plant response rating [5, 18] | Plant response rating, Crabgrass [5, 19] | Plant response rating, Crabgrass [5, 20] | Crabgrass plant response rating [5, 21] | Crabgrass plant response rating [5, 22] | Crabgrass plant response rating [5, 25] | Crabgrass plant response rating [5, 23] | Barnyardgrass plant response rating [6, 26] | Barnyardgrass plant response rating [6, 27] | Barnyardgrass plant response rating [6, 28] | Barnyardgrass plant response rating [6, 29] | Cocklebur plant response rating [7, 17] | Cocklebur plant response rating [7, 18] | Plant response rating, Cocklebur [7, 19] | Plant response rating, Cocklebur [7, 20] | Cocklebur plant response rating [7, 21] | Cocklebur plant response rating [7, 22] | Cocklebur plant response rating [7, 25] | Cocklebur plant response rating [7, 23] | Nutsedge plant response rating [8, 17] | Nutsedge plant response rating [8, 18] | Plant response rating, Nutsedge [8, 19] | Plant response rating, Nutsedge [8, 20] | Nutsedge plant response rating [8, 21] | Nutsedge plant response rating [8, 22] | Nutsedge plant response rating [8, 23] | Corn plant response rating [9, 17] | Corn plant response rating [9, 18] | Plant response rating, Corn [9, 19] | Plant response rating, Corn [9, 20] | Corn plant response rating [9, 21] | Corn plant response rating [9, 22] | Corn plant response rating [9, 25] | Corn plant response rating [9, 23] | B. signalgrass plant response rating ([10]; Postemergence, Rate 250 g/ha, scale 0 to 10, 0 no effect, 10 complete control) | B. signalgrass plant response rating [10, 18] | Plant response rating, B. signalgrass [10, 19] | Plant response rating, B. signalgrass [10, 20] | B. signalgrass plant response rating [10, 24] | B. signalgrass plant response rating ([10]; Preemergence, Rate 500 g/ha, scale of 0 to 10 where 0 is no effect and 10 is complete control) | B. signalgrass plant response rating [10, 25] | B. signalgrass plant response rating [10, 23] | S. Flatsedge plant response rating [11, 26] | S. Flatsedge plant response rating [11, 27] | S. Flatsedge plant response rating [11, 29] | Redroot pigweed plant response rating [12, 17] | Redroot pigweed plant response rating [12, 18] | Plant response rating, Redroot pigweed [12, 19] | Plant response rating, Redroot pigweed [12, 20] | Redroot pigweed plant response rating [12, 21] | Redroot pigweed plant response rating [12, 22] | Redroot pigweed plant response rating [12, 23] | Ducksalad plant response rating [13, 26] | Ducksalad plant response rating [13, 27] | Ducksalad plant response rating [13, 28] | Ducksalad plant response rating [13, 29] | Rice plant response rating [14, 26] | Rice plant response rating [14, 27] | Rice plant response rating [14, 29] | Sugarbeets plant response rating [15, 17] | Sugarbeets plant response rating [15, 18] | Plant response rating, Sugarbeets [15, 19] | Plant response rating, Sugarbeets [15, 20] | Sugarbeets plant response rating [15, 21] | Sugarbeets plant response rating [15, 22] | Sugarbeets plant response rating [15, 23] | Wheat plant response rating [16, 17] | Wheat plant response rating [16, 18] | Plant response rating, Wheat [16, 19] | Plant response rating, Wheat [16, 20] | Wheat plant response rating [16, 21] | Wheat plant response rating [16, 22] | Wheat plant response rating [16, 23]
